≈ marks a conversion by molar mass, not a printed value. Read-outs that look alike come from different tables or passages of the source.
Experiments:
Format in all cases: cell-based
[1] = test system: Streptococcus pneumoniae (ATCC6305); assay: In-vitro anti-bacterial microtitre plate assay, IC90 determination, Streptococcus pneumoniae; conditions: for IC90: read-out: IC90 SPN 6305
Protocol: (§1) D.3. In-Vitro Method for Testing Compounds for Anti-Bacterial Activity Against Various Non-Mycobacterial Strains […] The bacteria used in this study were grown overnight in flasks containing 100 ml Mueller-Hinton Broth (Becton Dickinson-cat. no. 275730) in sterile de-ionized water, with shaking, at 37° C. Stocks (0.5 ml/tube) were stored at -70° C. until use. Bacteria titrations were performed in microtiter plates to detect the TCID50, in which the TCID50 represents the dilution that gives rise to bacterial growth in 50% of inoculated cultures. In general, an inoculum level of approximately 100 TCID50 was used for susceptibility testing. Anti Bacterial Susceptibility Testing: IC90 Determination Microtitre Plate Assay […] Depending on the bacteria type, approximately 10 to 60 CFU per well of bacteria inoculum (100 TCID50), in a volume of 100 μl in 2.8× Mueller-Hinton broth medium, was added to the rows […]. The same volume of broth medium without inoculum was added to column 12 in row A to H. The cultures were incubated at 37° C. for 24 hours under a normal atmosphere (incubator with open air valve and continuous ventilation). At the end of incubation, one day after inoculation, the bacterial growth was quantitated fluorometrically. Therefore resazurin (0.6 mg/ml) was added in a volume of 20 μl to all wells 3 hours after inoculation, and the plates were re-incubated overnight. A change in colour from blue to pink indicated the growth of bacteria. The fluorescence was read in a computer-controlled fluorometer (Cytofluor Biosearch) at an excitation wavelength of 530 nm and an emission wavelength of 590 nm. The % growth inhibition achieved by the compounds was calculated according to standard methods.

M. Smegmatis (ATCC607) = assay: In-vitro anti-bacterial activity against strain M. Smegmatis ATCC607; conditions: for IC90: Mycolicibacterium smegmatis, read-out: IC90 MSM ATCC607
Protocol: D.2. In-Vitro Method for Testing Compounds for Anti-Bacterial Activity Against Strain M. Smegmatis ATCC607. Flat-bottom, sterile 96-well plastic microtiter plates were filled with 180 μl of sterile deionized water, supplemented with 0.25% BSA. […] Serial five-fold dilutions (45 μl in 180 μl) were made directly in the microtiter plates from column 2 to 11 using a customised robot system (Zymark Corp., Hopkinton, Mass.). Pipette tips were changed after every 3 dilutions to minimize pipetting errors with high hydrophobic compounds. […] Approximately 250 CFU per well of bacteria inoculum, in a volume of 100 μl in 2.8× Mueller-Hinton broth medium, was added to the rows […]. The same volume of broth medium without inoculum was added to column 12 in row A to H. The cultures were incubated at 37° C. for 48 hours in a humidified 5% CO2 atmosphere (incubator with open air valve and continuous ventilation). At the end of incubation, two days after inoculation, the bacterial growth was quantitated fluorometrically. Therefore Alamar Blue (10×) was added to all wells in a volume of 20 μl and plates were incubated for another 2 hours at […] The fluorescence was read in a computer-controlled fluorometer (Cytofluor, Biosearch) at an excitation wavelength of 530 nm and an emission wavelength of 590 nm (gain 30).

[2] = test system: Staphylococcus aureus (ATCC29213); assay: In-vitro anti-bacterial microtitre plate assay, IC90 determination, Staphylococcus aureus; conditions: for IC90: read-out: IC90 STA 29213
Protocol: as §1

[3] = 90% inhibitory concentration for bacterial growth, Streptococcus pneumoniae ATCC6305, 24 hours, resazurin fluorescence
[4] = 90% inhibitory concentration for bacterial growth, M. Smegmatis ATCC607, 48 hours, Alamar Blue fluorescence
[5] = 90% inhibitory concentration for bacterial growth, Staphylococcus aureus ATCC29213, 24 hours, resazurin fluorescence

Structure (SMILES) | IC90 SPN 6305 [1, 3] [µg/mL] | IC90 MSM ATCC607 (M. Smegmatis (ATCC607); [4]) [µg/mL] | IC90 STA 29213 [2, 5] [µg/mL] | further results
COc1nc2ccc(Br)cc2cc1C(O)(CCCCN(C)C)c1cccc2ccccc12 (stereo not drawn) [Compound 2] | 9.85 (≈ 20 µM) | 7.82 (≈ 15.8 µM) | 39.20 (≈ 79.4 µM) | 
COc1nc2ccc(-c3cc4ccccc4o3)cc2cc1C(O)(CCCN(C)C)c1cccc2ccccc12 (stereo not drawn) [Compound 19] | 8.19 (≈ 15.9 µM) | 3.26 (≈ 6.31 µM) | 3.66 (≈ 7.08 µM) | 
COc1nc2ccc(-c3cccs3)cc2cc1C(O)(CCCN(C)C)c1cccc2ccccc12 (stereo not drawn) [Compound 13] | 1.71 (≈ 3.54 µM) | 1.53 (≈ 3.17 µM) | 1.53 (≈ 3.17 µM) | 
COc1nc2ccc(-c3cccnc3)cc2cc1C(O)(CCCCN(C)C)c1cccc2ccccc12 (stereo not drawn) [Compound 17] | 49.16 (≈ 100 µM) | 49.16 (≈ 100 µM) | 49.16 (≈ 100 µM) | 
COc1ccccc1-c1ccc2nc(OC)c(C(O)(CCCN(C)C)c3cccc4ccccc34)cc2c1 (stereo not drawn) [Compound 7] | 1.8 (≈ 3.55 µM) | 1.60 (≈ 3.16 µM) | 1.60 (≈ 3.16 µM) | 
COc1nc2ccc(-c3cccnc3)cc2cc1C(O)(CCCN(C)C)c1cccc2ccccc12 (stereo not drawn) [Compound 16] | 7.57 (≈ 15.8 µM) | 1.51 (≈ 3.16 µM) | 7.57 (≈ 15.8 µM) | 
COc1ccccc1-c1ccc2nc(OC)c(C(O)(CCCCCN(C)C)c3cccc4ccccc34)cc2c1 (stereo not drawn) [Compound 9] | 8.47 (≈ 15.8 µM) | 8.47 (≈ 15.8 µM) | 8.47 (≈ 15.8 µM) | 
COc1nc2ccc(-c3ccccc3)cc2cc1C(O)(CCCCN(C)C)c1cccc2ccccc12 (stereo not drawn) [Compound 5] | 49.07 (≈ 100 µM) | 7.78 (≈ 15.9 µM) | 38.97 (≈ 79.4 µM) | 
COc1nc2ccc(Br)cc2cc1C(O)(CCCCCN(C)C)c1cccc2ccccc12 (stereo not drawn) [Compound 3] | 10.13 (≈ 20 µM) | 11.36 (≈ 22.4 µM) | 8.04 (≈ 15.8 µM) | 
COc1nc2ccc(-c3cccs3)cc2cc1C(O)(CCCCN(C)C)c1cccc2ccccc12 (stereo not drawn) [Compound 14] | 49.67 (≈ 100 µM) | 15.71 (≈ 31.6 µM) | 39.45 (≈ 79.4 µM) | 
COc1nc2ccc(-c3ccccc3)cc2cc1C(O)(CCCN(C)C)c1cccc2ccccc12 (stereo not drawn) [Compound 4] |  |  |  | IC90 ([1]; Streptococcus pneumoniae, ATCC6305, 24 h): 1.51 µg/mL (≈ 3.17 µM); IC90 (M. Smegmatis (ATCC607); ATCC607, 48 h): 1.51 µg/mL (≈ 3.17 µM); IC90 ([2]; Staphylococcus aureus, ATCC29213, 24 h): 1.51 µg/mL (≈ 3.17 µM)
COc1nc2ccc(-c3cccnc3)cc2cc1C(O)(CCCCCN(C)C)c1cccc2ccccc12 (stereo not drawn) [Compound 18] | 8.99 (≈ 17.8 µM) | 8.01 (≈ 15.8 µM) | 8.01 (≈ 15.8 µM) | 
COc1nc2ccc(-c3cccs3)cc2cc1C(O)(CCCCCN(C)C)c1cccc2ccccc12 (stereo not drawn) [Compound 15] | 51.07 (≈ 100 µM) | 45.52 (≈ 89.1 µM) | 51.07 (≈ 100 µM) | 
COc1nc2ccc(-c3ccoc3)cc2cc1C(O)(CCCCCN(C)C)c1cccc2ccccc12 (stereo not drawn) [Compound 12] | 1.76 (≈ 3.56 µM) | 1.56 (≈ 3.15 µM) | 1.56 (≈ 3.15 µM) | 
COc1nc2ccc(-c3ccccc3)cc2cc1C(O)(CCCCCN(C)C)c1cccc2ccccc12 (stereo not drawn) [Compound 6] | 10.07 (≈ 20 µM) | 6.35 (≈ 12.6 µM) | 8.00 (≈ 15.9 µM) | 
COc1nc2ccc(Br)cc2cc1C(O)(CCCN(C)C)c1cccc2ccccc12 (stereo not drawn) [Compound 1] |  |  |  | IC90 [1, 3]: 8.53 µg/mL (≈ 17.8 µM); IC90 (M. Smegmatis (ATCC607); [4]): 1.91 µg/mL (≈ 3.98 µM); IC90 [2, 5]: 7.6 µg/mL (≈ 15.9 µM)
COc1ccccc1-c1ccc2nc(OC)c(C(O)(CCCCN(C)C)c3cccc4ccccc34)cc2c1 (stereo not drawn) [Compound 8] | 10.39 (≈ 20 µM) | 6.55 (≈ 12.6 µM) | 8.25 (≈ 15.8 µM) | 
COc1nc2ccc(-c3cc4ccccc4o3)cc2cc1C(O)(CCCCCN(C)C)c1cccc2ccccc12 (stereo not drawn) [Compound 20] | 1.72 (≈ 3.16 µM) | 1.72 (≈ 3.16 µM) | 1.72 (≈ 3.16 µM) | 
COc1nc2ccc(-c3ccoc3)cc2cc1C(O)(CCCCN(C)C)c1cccc2ccccc12 (stereo not drawn) [Compound 11] | 9.59 (≈ 20 µM) | 7.62 (≈ 15.9 µM) | 7.62 (≈ 15.9 µM) | 
COc1nc2ccc(-c3ccoc3)cc2cc1C(O)(CCCN(C)C)c1cccc2ccccc12 (stereo not drawn) [Compound 10] | 3.30 (≈ 7.07 µM) | 1.48 (≈ 3.17 µM) | 1.66 (≈ 3.56 µM) | 

Source: patent publication US20110166179A1, “ANTIBACTERIAL QUINOLINE DERIVATIVES” (priority 2007, published 2011)
